Test [1] deals with TAS2R4 in anagen hair follicles. Kind of test: Inactivation of TAS2R4 with BCML in cultured hair follicles. The test is classed as cell-based, human. Here is the method:
For analyzing the effect of inactivating TAS2R4, by the inverse agonist Nα,Nα-bis(carboxymethyl)-l-lysine (BCML), hair follicles were cultured in WEM medium supplemented with 2 mM L-glutamine, 10 ng/mL hydrocortisone, 10 μg/mL insulin and 1% penicillin/streptomycin mix (WCM medium), and treated either with 120 μM BCML (Sigma-Aldrich, cat. 14580) diluted in WCM or vehicle (WCM medium) according to the following procedure:
(§1) Day 0: Isolation of anagen hair follicles
Day 1: Change media, application of the substance corresponding to experimental groups (control group: WCM, experimental group: 120 μM BCML)
Day 7: Collection and freezing of hair follicles for analyses

Test [2] has as its system TAS2R4 in human anagen hair follicles. Put plainly: Activation of TAS2R4 with Rebaudioside A in cultured hair follicles. The test is classed as cell-based. Here is the method:
For analyzing the effect of activating TAS2R4 by the agonist Rebaudioside A, human anagen hair follicles from 2 donors were cultured in WEM medium supplemented with 2 mM L-glutamine, 10 ng/mL hydrocortisone, 10 μg/mL insulin and 1% penicillin/streptomycin mix (WCM medium), and treated either with 200 μM Rebaudioside A (Sigma-Aldrich, cat. 01432) diluted in DMSO or vehicle (0.5% DMSO in WCM medium) according to the following procedure:
as §1
Day 1: Change WCM media, application of the substance corresponding to experimental groups (control group: 0.5% DMSO, experimental group: 200 μM Rebaudioside A)
(§2) Day 6: Collection and freezing of hair follicles for analyses

In test [3] the test system is TAS2R4 in anagen hair follicles. Put plainly: Activation of TAS2R4 with Rubusoside in cultured hair follicles. The test is classed as cell-based, human. Here is the method:
For analyzing the effect of activating TAS2R4 by the agonist Rubusoside, hair follicles were cultured in WEM medium supplemented with 2 mM L-glutamine, 10 ng/mL hydrocortisone, 10 μg/mL insulin and 1% penicillin/streptomycin mix (WCM medium), and treated either with 50 μM Rubusoside (Sigma-Aldrich, cat. 62933) diluted in DMSO or vehicle (0.05% DMSO in WCM medium) according to the following procedure:
as §1
Day 1: Change media, application of the substance corresponding to experimental groups (control group: 0.05% DMSO, experimental group: 50 μM Rubusoside)
as §2

Test [4] shares this test system. Kind of test: Activation of TAS2R4 with Stevioside in cultured hair follicles. Type of test: cell-based, human. Here is the method:
To determine the effect of activating TAS2R4 by the agonist Stevioside, anagen hair follicles were cultured in WEM medium supplemented with 2 mM L-glutamine, 10 ng/mL hydrocortisone, 10 μg/mL insulin and 1% penicillin/streptomycin mix (WCM medium), and treated either with 200 μM Stevioside (Sigma-Aldrich, cat. 50956) diluted in DMSO or vehicle (0.2% DMSO in WCM medium) according to the following procedure: Day 0: Isolation of anagen hair follicles Day 1: Change media, application of the substance corresponding to experimental groups (control group: 0.2% DMSO, experimental group: 200 μM Stevioside) Day 2: Rest Day 3: Change media Day 4: Rest Day 5: Change media Day 6: Rest Day 7: Collection and freezing of hair follicles for analyses

Setting [5] is: 120 μM BCML vs vehicle (WCM), collection day 7.
[6] abbreviates: 200 μM Rebaudioside A vs 0.5% DMSO, collection day 6.
The mark [7] stands for this setting: 200 μM Stevioside vs 0.2% DMSO, collection day 7.

Here are results for four compounds from patent publication US20220168206A1, “ACTIVE AGENT FOR USE IN HAIR GROWTH REGULATION” (MONASTERIUM LABORATORY SKIN & HAIR RESEARCH SOLUTIONS GMBH, priority 2019, published 2022).

On to `NCCCC[C@@H](C(=O)O)N(CC(=O)O)CC(=O)O` [BCML, Nα,Nα-bis(carboxymethyl)-l-lysine], for which, in test [1] (setting [5]), the apoptosis entry is listed as “does not affect”, the “hair matrix keratinocyte proliferation” value is listed as “increases”, the pigmentation entry was “increases” and the “proportion of hair follicles in anagen stage” value is “increases”. The hair growth result in test [1] (summary statement, anagen hair follicles, BCML) is on record as “hair growth promotion”.

In the case of `C=C1C[C@@]23CC[C@H]4[C@@](C)(CCC[C@@]4(C)C(=O)O[C@@H]4O[C@H](CO)[C@@H](O)[C@H](O)[C@H]4O)[C@@H]2CC[C@]1(O[C@@H]1O[C@H](CO)[C@@H](O)[C@H](O[C@@H]2O[C@H](CO)[C@@H](O)[C@H](O)[C@H]2O)[C@H]1O[C@@H]1O[C@H](CO)[C@@H](O)[C@H](O)[C@H]1O)C3` [Rebaudioside A], the “proportion of hair follicles in catagen stage” value in test [2] (200 μM Rebaudioside A vs 0.5% DMSO, 2 donors, collection day 6) was “increases”. Besides, in test [2] (setting [6]), the apoptosis entry is “increases”, the “hair matrix keratinocyte proliferation” value is on record as “decreases” and the pigmentation entry is “hypopigmentation”. For the same compound, in test [2] (summary statement, Rebaudioside A), the hair growth entry was “hair growth inhibition”.

With `C=C1C[C@@]23CC[C@H]4[C@@](C)(CCC[C@@]4(C)C(=O)O[C@@H]4O[C@H](CO)[C@@H](O)[C@H](O)[C@H]4O)[C@@H]2CC[C@]1(O[C@@H]1O[C@H](CO)[C@@H](O)[C@H](O)[C@H]1O)C3` [Rubusoside], in test [3] (50 μM Rubusoside vs 0.05% DMSO, collection day 6), the “proportion of human hair follicles in catagen stage” value is “increases”. The hair growth entry in test [3] (summary statement, Rubusoside) is on record as “hair growth inhibition”.

Take `C=C1C[C@@]23CC[C@H]4[C@@](C)(CCC[C@@]4(C)C(=O)O[C@@H]4O[C@H](CO)[C@@H](O)[C@H](O)[C@H]4O)[C@@H]2CC[C@]1(O[C@@H]1O[C@H](CO)[C@@H](O)[C@H](O)[C@H]1O[C@@H]1O[C@H](CO)[C@@H](O)[C@H](O)[C@H]1O)C3` [Stevioside]: in test [4] (setting [7]), the apoptosis entry is on record as “does not affect”, the “hair matrix keratinocyte proliferation” value is “decreases” and the “proportion of hair follicles in catagen stage” value is “increases”. The hair growth entry in test [4] (summary statement, Stevioside) is recorded as “hair growth inhibition”.
